# Test results published in BindingDB's records for doi:10.1016/0960-894X(95)00404-H (1995).
# pKd: −log10 of the molar value.
# Assay: Binding affinity to protein phosphatase, calcineurin (CN) was determined
row,SMILES,pKd
1,C=CC[C@@H]1/C=C(\C)C[C@H](C)C[C@H](OC)[C@H]2O[C@@](O)(C(=O)C(=O)N3CCCC[C@H]3C(=O)O[C@H](/C(C)=C/[C@@H]3CC[C@@H](O)[C@H](OC)C3)[C@H](C)[C@@H](O)CC1=O)[C@H](C)C[C@@H]2OC,7.70
2,"C=CC[C@@H]1/C=C(\C)C[C@H](C)C[C@H](OC)[C@@H](O)[C@@H](OC)C[C@@H](C)CC(=O)C(=O)N2CCCC[C@H]2C(=O)O[C@H](/C(C)=C/[C@@H]2CC[C@@H](O)[C@H](OC)C2)[C@H](C)[C@@H](O)CC1=O [18-(E)-allyl-11,21-Dihydroxy-23-[2-((R)-4-hydroxy-3-methoxy-cyclohexyl)-1-methyl-vinyl]-10,12-dimethoxy-8,14,16,22-pentamethyl-1,3,4,7,8,9,10,11,12,13,14,15,18,20,21,22,23,25a-octadecahydro-2H-24-oxa-4a-aza-benzocyclotricosene-5,6,19,25-tetraone]",6.46
3,"CCCC1C(=O)CC[C@@H](C)[C@@H](CCc2cccnc2)OC(=O)[C@@H]2CCCN(C2)C(=O)C(=O)CSCC[C@@H](OC)C[C@@H](C)CC(=O)N1C (stereo partly drawn) [(8S,10R,18R,19R,22R)-8-Methoxy-10,13,18-trimethyl-14-propyl-19-(2-pyridin-3-yl-ethyl)-20-oxa-5-thia-1,13-diaza-bicyclo[20.3.1]hexacosane-2,3,12,15,21-pentaone]",< 6.00
4,"CCCC1C(=O)CC[C@@H](C)[C@@H](CCc2cccnc2)OC(=O)[C@@H]2CCCN(C2)C(=O)C(O)CC[S+]([O-])CC[C@@H](OC)C[C@@H](C)CC(=O)N1C (stereo partly drawn) [(9S,11R,19R,20R,23R)-3-Hydroxy-9-methoxy-11,14,19-trimethyl-6-oxo-15-propyl-20-(2-pyridin-3-yl-ethyl)-21-oxa-6lambda*4*-thia-1,14-diaza-bicyclo[21.3.1]heptacosane-2,13,16,22-tetraone]",< 6.00
5,"CCC(C)C1C(=O)CC[C@@H](C)[C@@H](CCc2cccnc2)OC(=O)[C@@H]2CCCN(C2)C(=O)C(=O)CCSCC[C@@H](OC)C[C@@H](C)CC(=O)N1C (stereo partly drawn) [(9S,11R,19R,20R,23R)-15-sec-Butyl-9-methoxy-11,14,19-trimethyl-20-(2-pyridin-3-yl-ethyl)-21-oxa-6-thia-1,14-diaza-bicyclo[21.3.1]heptacosane-2,3,13,16,22-pentaone]",< 6.00
6,"C=CC[C@@H]1/C=C(\C)C[C@H](C)C[C@H](OC)[C@@H](O)[C@@H](OC)C[C@@H](C)c2ncoc2C(=O)N2CCCC[C@H]2C(=O)O[C@H](/C(C)=C/[C@@H]2CC[C@@H](O)[C@H](OC)C2)[C@H](C)C(O)CC1=O (stereo partly drawn) [(E)-18-Allyl-11,21-dihydroxy-23-[(E)-2-((R)-4-hydroxy-3-methoxy-cyclohexyl)-1-methyl-vinyl]-10,12-dimethoxy-8,14,16,22-tetramethyl-4,24-dioxa-1,6-diaza-tricyclo[24.4.0.0*3,7*]triaconta-3(7),5,16-triene-2,19,25-]",6.52
